Literature values as cited in patent US20100297195A1, “CONTROLLED RELEASE LAMOTRIGINE FORMULATIONS” (RANBAXY LABORATORIES LIMITED, priority 2009, published 2010).

Details: oral administration

absolute bioavailability: 98% | effect of food on bioavailability: not affected by food
SMILES: Nc1nnc(-c2cccc(Cl)c2Cl)c(N)n1 [Lamotrigine, 3,5-diamino-6-(2,3-dichlorophenyl)-1,2,4-triazine]
